{"source": "patent US20150005237A1", "about": "“PEPTIDIC INHIBITOR OF SIGNAL TRANSMISSION FROM G-ALPHA-S TO G-ALPHA-I-COUPLED RECEPTOR CASCADES” (UNIVERSITÄT INNSBRUCK, priority 2011, published 2015)", "assay_type_in_all_cases": "cell-based", "key": {"[1]": {"system": "Erk1/2 phosphorylation in δOR-HEK293 cells", "test": "MAPK-phosphorylation assay (Erk1/2) in δOR-HEK293 cells", "conditions": "for SNC80-induced Erk1/2 phosphorylation (amplitude and duration): pre-treatment before SNC80", "experimental": "δOR-HEK293 cells were grown in 12 or 24 well plate formats (DMEM supplemented with 10% FBS). Either 24 or 48 hours after splitting or co-transfection in overexpression studies [transfected with constructs encoding the regulatory (RIIβ) or catalytic subunits (PKAc) of PKA] confluent cells were treated with inhibitors (KT5720 for 60 minutes, pertussis toxin for 16 hours), chemical modulators (forskolin, 6-MBC-cAMP, Sp-5,6-DCI-cBIMPS, Sp-8-PIP-cAMPs, 2-Cl-8-MA-cAMP [all for 15 minutes] or Rp-cAMP for 60 minutes) and/or the δOR ligand SNC80 (for either 3, 6, 10 or 15 minutes). cAMP analogs purchased from Biolog (6-MBC-cAMP, #M012; Sp-5,6-DCI-cBIMPS, #D014; Sp-8-PIP-cAMPs, #P005, 2-Cl-8-MA-cAMP, #C080; Rp-cAMP, #A002S) (see Bobrovskaya et al., Cell. Signal. 19, 1141-1149 (2007); Nguyen et al., Cell. Signal. 16, 1141-1151 (2004); Maronde et al., J. Pineal Res. 27, 170-182 (1999); Ogreid et al., Eur. J. Biochem. 181, 19-31 (1989); Poppe et al., Nat. Methods 5, 277-278 (2008)).\nFollowing treatments at 37° C. for 3, 6, 10 or 15 minutes the reactions were stopped by direct addition of Laemmli sample buffer. Equal amounts of protein (lysates normalized to loading control proteins) were subjected to polyacrylamide gel electrophoresis followed by immunoblotting (IB). To analyze the phosphorylation of Erk1/2 we applied the Phospho-p44/42 MAP Kinase antibody (Cell Signaling Technology, #9101). Quantitative densitometry of immuno blot bands was performed using the program ImageQuant 5.2 (Molecular Dynamics)."}, "trimeric Gαi:βγ complex": {"system": "trimeric Gαi:βγ complex", "test": "BRET assay of Gαi1:Gγ2 conformational rearrangement in δOR-HEK293 cells", "excerpt": "δOR-HEK293 cells grown in DMEM supplemented with 10% FBS were transiently transfected with the following constructs: For measurements of the interactions of G protein subunits among each other and with the receptor we transfected Gαi1 with the Renilla luciferase (Rluc) inserted at amino acid position 91 and the UV-shifted GFP variant GFP10 (substitutions: P64L, S147P, and S202P) fused to the C-terminus of […] or the UV-shifted variant GFP2 (substitution: F64L) fused to the C-terminus of the δOR. In overexpression studies, we coexpressed regulatory (RIIβ) or catalytic subunits (PKAc) of PKA. […] Total fluorescence and bioluminescence were evaluated for each well using a FlexStation2 (Molecular Devices) and Mithras LB 940 (Berthold Technologies), respectively. uvGFP fluorescence was excited at 400 nm and read at 515 nm. Fluorescence values were corrected by subtracting the auto-fluorescence of cells not expressing uvGFP. BRET between Rluc and GFP2 or GFP10 was measured after the addition of 5 μM Rluc substrate DeepBlueC (bisdeoxy-coelenterazine, PerkinElmer, Lifescience). BRET signals were derived from the emission detected with the energy acceptor filter (515±15 nm; GFP2/10) divided by the emission detected with the energy donor filter (410±40 nm; Rluc/Rluc3). […]"}, "R:Gαi3 complexes": {"system": "R:Gαi3 complexes", "test": "cAMP agarose precipitation of R:Gαi3 complexes from COS7 cells", "conditions": "forskolin pre-treatment 15 minutes, 2AHA-cAMP-coupled agarose beads", "experimental": "HEK293, U2OS cells and total brains of mice were homogenized using a Potter S (B. Braun Biotech International) with 15 strikes (lysis buffer: 10 mM sodium phosphate pH 7.2, 150 mM NaCl, 0.05% Triton X100 supplemented with standard protease inhibitors). We clarified the lysate (13000 rpm, 15 min) and precipitated PKA regulatory subunit associated protein complexes with PKA selective 8-AHA-cAMP agarose and Rp-8-AHA-cAMP agarose resin (Biolog, […]) for two hours at 4° C. As negative control experiment we added excess of cAMP (5 mM) to the brain lysates to mask the cAMP binding sites in the R subunits for precipitation. Resin associated proteins were washed four times with lysis buffer and eluted with Laemmli sample buffer. Equal amounts of protein (lysates normalized to loading control proteins) were subjected to polyacrylamide gel electrophoresis followed by immunoblotting with indicated antibodies. We performed densitometric quantification of RIIβ, PKAc and Gαi3 (in each case normalized on the most abundant precipitated protein from the same immunoblot (n=3) to compare complex formation and fold enrichment between holoenzyme (precipitated with Rp-8-AHA-cAMP) and activated R complexes (precipitated with 8-AHA-cAMP).\nWe then tested whether pre-dissociating endogenous R/Reg and PKAc/Cat subunits would change the stoichiometry of R:Gαi3 or R:PDK1 complexes. […]"}, "[2]": {"biological_target": "T1, RIIβ-RlucF[1]:PKAc-RlucF[2] complex (Rattus norvegicus, UniProt P12369)", "T1 construct": "Renilla luciferase PCA fragment F[1]; expressed in transfected cells", "T1 sequence (P12369 whole entry, the tested form may be a part, one chain of several)": "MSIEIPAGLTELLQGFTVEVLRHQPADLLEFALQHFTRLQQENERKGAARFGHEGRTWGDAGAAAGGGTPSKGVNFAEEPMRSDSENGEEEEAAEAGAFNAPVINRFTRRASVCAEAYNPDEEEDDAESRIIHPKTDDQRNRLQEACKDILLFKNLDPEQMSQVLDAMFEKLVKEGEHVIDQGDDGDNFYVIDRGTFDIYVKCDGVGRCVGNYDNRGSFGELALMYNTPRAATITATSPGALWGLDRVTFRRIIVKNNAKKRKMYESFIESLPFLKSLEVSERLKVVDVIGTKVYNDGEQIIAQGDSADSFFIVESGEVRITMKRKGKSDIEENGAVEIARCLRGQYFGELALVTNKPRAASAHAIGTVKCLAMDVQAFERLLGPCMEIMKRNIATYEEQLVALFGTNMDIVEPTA", "test": "Renilla luciferase PCA of PKA holoenzyme dissociation in HEK293T cells", "conditions": "HEK293T cells stably expressing the PKA reporter", "experimental": "We have generated a stable HEK293T cell line coexpressing the PCA fusion proteins RIIβ-Rluc-F[1] and PKAc-RlucF[2], as previously described. All cells were grown in DMEM supplemented with 10% FBS. We treated confluent HEK293T cells (stably expressing the PKA reporter) grown in 24 well plate format with varying concentrations and combinations of cAMP analogs 6-MBC-cAMP and Sp-5,6-DCI-cBIMPS (15 min; Biolog, Germany). We pretreated confluent HEK293T cells (stably expressing the PKA reporter) grown in 24 well plate format with 250 μM of Rp-cAMP (60 minutes) or with 6-MBC-cAMP and Sp-5,6-DCI-cBIMPS (=RII selective, each 50 μM; 15 min). We pretreated confluent HEK293T cells (stably expressing the PKA reporter) grown in 24 well plate format for 30 minutes with TAT or Reggai fusion peptides (˜3 μM) followed by exposure to forskolin (100 μM; 15 min). Following treatment, growth medium was exchanged and cells were resuspended in 350 μl of PBS. 100 μl of cell suspensions were transferred to 96-well plates and subjected to bioluminescence analysis using the LMaxTMII384 luminometer (Molecular Devices). Rluc bioluminescence signals were integrated for 10 seconds following addition of the Rluc substrate benzyl-coelenterazine (5 μM; Nanolight). […]"}, "Gαs- to Gαi-cascades": {"system": "Gαs- to Gαi-cascades", "test": "Reggai peptide applied in living HEK293 cells: signal transmission from Gαs- to Gαi-cascades", "conditions": "HEK293 cell line", "excerpt": "The present inventors identified and successfully applied the Reggai peptide directly in the living cells, in particular cell culture, HEK293 cell line, and changed the original and conserved Reggai sequence in a model organism (budding yeast) to prevent signal transmission from Gαs- to Gαi-cascades. The Reggai peptide had no effect on sole activation of either cascade, just in the case of simultaneous activation of both types of receptors the Gαs triggered and PKA-mediated elevation of Gαi activities was abolished. In the mammalian system the present inventors used biochemical tools to measure changes of cAMP levels, G protein activities and MAPK activation downstream of Gαi-coupled receptors upon formation of the dynamic interaction between PKA and Gαi."}, "PKA kinase activity": {"system": "PKA kinase activity", "test": "CREB phosphorylation monitoring of PKA kinase activity", "conditions": "conditions used for the Erk1/2 experiments", "experimental": "We also tested the impact of R:Gαi complex formation on the evolutionary conserved route of signal transmission from Gαi to MAPK9. […] Pre-treatment with forskolin potentiated the SNC80-induced Erk1/2 phosphorylation (FIG. 2c). […] To exclude the possibility that PKA kinase activity could account for this potentiation, we pre-treated cells with the PKA inhibitor KT5720 (unless noted otherwise, all subsequent experiments were carried out in the presence of this kinase activity inhibitor). We confirmed that KT5720 inhibits PKA kinase activity under the conditions used by monitoring CREB phosphorylation (activated independently of Gαi signalling)."}}, "note": "Where no end group is shown, it is not given here."}
{"compound": "OC1C2OP(O)(=S)OCC2OC1n1cnc2cc(Cl)c(Cl)cc21", "note": "(stereo not drawn) [Sp-5,6-DCI-cBIMPS]", "values": [{"measurement": "SNC80-induced Erk1/2 phosphorylation (amplitude and duration)", "setting": "[1]", "value": "potentiated"}]}
{"compound": "C=C[C@@]1(C)CC(=O)[C@]2(O)[C@@]3(C)[C@@H](O)CCC(C)(C)[C@@H]3[C@H](O)[C@H](OC(C)=O)[C@@]2(C)O1", "note": "[forskolin]", "values": [{"measurement": "conformation of the trimeric G-protein complex", "setting": "trimeric Gαi:βγ complex; treatment alone, without SNC80", "value": "no effect"}, {"measurement": "fold enrichment of R:Gαi3 complexes", "setting": "R:Gαi3 complexes", "value": "3.8 (SD±0.99) fold"}]}
{"compound": "Nc1ncnc2c1ncn2[C@@H]1O[C@@H]2COP(O)(=S)O[C@H]2[C@H]1O", "note": "(stereo partly drawn) [Rp-cAMP]", "values": [{"measurement": "SNC80+RegII subunit activator and SNC80+forskolin mediated Erk1/2 phosphorylation", "setting": "[1]; pre-treatment 250 μM, 60 minutes", "value": "decreased"}, {"measurement": "PKA holoenzyme dissociation", "setting": "[2]", "value": "prevented"}]}
{"compound": "Nc1ncnc2c1nc(N1CCCCC1)n2[C@@H]1O[C@@H]2COP(=O)(O)O[C@H]2[C@H]1O", "note": "[8-PIP-cAMP]", "values": [{"measurement": "SNC80-induced Erk1/2 phosphorylation (amplitude and duration)", "setting": "[1]", "value": "no effect"}]}
{"compound": "QGDSADSFFIVESGE (not fully specified; listed as Homo sapiens) [Reggai peptide, PKA RIIβ-derived 15 amino acid peptide; applied to cells as fusion with GST, TAT and Flag]", "values": [{"measurement": "potentiation of SNC80-mediated Erk1/2 phosphorylation using RII/RegII subunit activators", "setting": "[1]; fusion peptides ~3 μM, 30 minutes", "value": "prevented"}, {"measurement": "sole activation of either cascade (Gαs or Gαi)", "setting": "Gαs- to Gαi-cascades; only one cascade activated", "value": "no effect"}, {"measurement": "Gαs triggered and PKA-mediated elevation of Gαi activities", "setting": "Gαs- to Gαi-cascades; simultaneous activation of both types of receptors", "value": "abolished"}, {"measurement": "PKA holoenzyme dissociation", "setting": "[2]", "value": "Neither Reggai nor TAT control peptide pre-treatment of HEK293T cells had any effect"}]}
{"compound": "C=CCN1C[C@H](C)N([C@H](c2ccc(C(=O)N(CC)CC)cc2)c2cccc(OC)c2)C[C@H]1C", "note": "[SNC80]", "values": [{"measurement": "BRET between Gαi1 and Gγ2", "setting": "trimeric Gαi:βγ complex; agonist alone", "value": "decrease"}, {"measurement": "Erk1/2 phosphorylation", "setting": "[1]; agonist alone", "value": "large but transient increase"}]}
{"compound": "6-MBC-cAMP", "values": [{"measurement": "SNC80-induced Erk1/2 phosphorylation (amplitude and duration)", "setting": "[1]", "value": "potentiated"}]}
{"compound": "CCCCCCOC(=O)[C@]1(O)C[C@@H]2O[C@@]1(C)n1c3ccccc3c3c4c(c5c6ccccc6n2c5c31)C(=O)NC4", "note": "[KT5720]", "values": [{"measurement": "PKA kinase activity (CREB phosphorylation)", "setting": "PKA kinase activity", "value": "inhibits"}]}
{"compound": "CNc1nc2c(N)nc(Cl)nc2n1C1O[C@@H]2COP(=O)([O-])O[C@H]2[C@H]1O.[Na+]", "note": "(stereo partly drawn) [2-Cl-8-MA-cAMP]", "values": [{"measurement": "SNC80-induced Erk1/2 phosphorylation (amplitude and duration)", "setting": "[1]", "value": "no effect"}]}
